# Measurements from US9242984B2, “Pyrazolyl derivatives as Syk inhibitors” (Merck Sharp & Dohme Corp., priority 2012, dated 2016).
# Target: T1, recombinant human Syk (GST-hSyk fusion protein) (Homo sapiens, UniProt P43405)
# T1 construct: purchased Carna Biosciences 08-176
# Experiment: Homogeneous Time-Resolved Fluorescence (HTRF) assay for the recombinant human Syk enzyme
# Format: biochemical
# Settings: 10-dose titration, 25 μM ATP; read-out: rhSYK IC50
# Outline: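 IC50 came from a four-parameter fit over ten doses, 10 μM to 0.508 nM, with HTRF read-out (Eu-anti-pTyr antibody, SA-APC, EDTA stop, 30 min). The enzyme, 5 pM GST-hSyk, met compound for 10 min, then phosphorylated 250 nM biotin-peptide with 25 μM ATP and 5 mM Mg for 45 min at room temperature, pH 7.5.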
row,Compound,IC50 [nM]
1,"Cc1cc(Nc2ncccn2)cc(-c2cnn(C3CC(C(N)=O)C3)c2)c1 (single isomer, unassigned) [Example 31.1, 3-(4-(3-Methyl-5-(pyrimidin-2-ylamino)phenyl)-1H-pyrazol-1-yl)cyclobutanecarboxamide]",34.9
2,"Cc1cc(Nc2nccc(C(F)F)n2)cc(-c2cnn(C3CCCC(O)C3O)c2)c1 (single isomer, unassigned) [Example 10.4, 3-[4-(3-{[4-(difluoromethyl)pyrimidin-2-yl]amino}-5-methylphenyl)-1H-pyrazol-1-yl]cyclohexane-1,2-diol]",3.7
3,"Cc1cc(Nc2ncc(F)c(C(F)F)n2)cc(-c2cnn([C@@H]3CCC[C@@H](O)[C@H]3O)c2)c1 (single isomer, unassigned) [Example 10.11, 3-[4-(3-{[4-(difluoromethyl)-5-fluoro-pyrimidin-2-yl]amino}-5-methylphenyl)-1H-pyrazol-1-yl]cyclohexane-1,2-diol]",3.5

# Same assay, conditions: IC50 class; 10-dose titration, 25 μM ATP; read-out: rhSYK Activity
row,Compound,IC50 [nM]
1,"Cc1cc(Nc2nccc(C(F)(F)F)n2)cc(-c2cnn(Cc3nnc(C)o3)c2)c1 [Example 3.24, N-(3-methyl-5-{1-[(5-methyl-1,3,4-oxadiazol-2-yl)methyl]-1H-pyrazol-4-yl}phenyl)-4-(trifluoromethyl)pyrimidin-2-amine]",≤ 100
2,"Cc1cc(Nc2nccc(C(F)(F)F)n2)cc(-c2cnn(C[C@@H](O)C(N)=O)c2)c1 [Example 7.3, (2R)-2-hydroxy-3-[4-(3-methyl-5-{[4-(trifluorometh-yl)pyrimidin-2-yl]amino}-phenyl)-1H-pyrazol-1-yl]propanamide]",≤ 100
3,"Cc1cc(Nc2ncccn2)cc(-c2cnn(C3CC(C(N)=O)C3)c2)c1 (single isomer, unassigned) [Example 31.1, 3-(4-(3-Methyl-5-(pyrimidin-2-ylamino)phenyl)-1H-pyrazol-1-yl)cyclobutanecarboxamide]",≤ 100
4,"Cc1cc(Nc2nccc(C(F)(F)F)n2)cc(-c2cnn(CC(=O)N3CCC3)c2)c1 [Example 3.26, N-{3-[1-(2-azetidin-1-yl-2-oxoethyl)-1H-pyrazol-4-yl]-5-methylphenyl}-4-(trifluoromethyl)pyrimidin-2-amine]",≤ 100
5,4-{[4-(4-methyl-6-{[4-(trifluoromethyl)-pyridin-2-yl]amino}-pyridin-2-yl)-1H-pyrazol-1-yl]methyl}-pyrrolidin-2-one [Example 1.39],≤ 100
6,"Cc1cc(Nc2nccc(C(F)F)n2)cc(-c2cnn(CC(C)(C)O)c2)c1 [Example 5.35, 1-[4-(3-{[4-(difluoromethyl)pyrimidin-2-yl]amino}-5-methylphenyl)-1H-pyrazol-1-yl]-2-methylpropan-2-ol]",≤ 100
7,"Cc1cc(Nc2ncc(Cl)c(C)n2)cc(-c2cnn(CC3CNC(=O)O3)c2)c1 (centres unmarked) [Example 2.26, 5-[(4-{3-[(5-chloro-4-methylpyrimidin-2-yl)amino]-5-methylphenyl}-1H-pyrazol-1-yl)methyl]-1,3-oxazolidin-2-one]",≤ 100
8,"Cc1cc(Nc2nccc(C(F)(F)F)n2)cc(-c2cnn(CC3OC(=O)NC3(C)C)c2)c1 (centres unmarked) [Example 3.99, 4,4-dimethyl-5-{[4-(3-methyl-5-{[4-(trifluoromethyl)pyrimidin-2-yl]amino}phenyl)-1H-pyrazol-1-yl]methyl}-1,3-oxazolidin-2-one]",≤ 100
9,"O=C1NCC(Cn2cc(-c3cccc(Nc4nccc(C(F)(F)F)n4)c3)cn2)O1 (centres unmarked) [Example 2.27, 5-{[4-(3-{[4-(trifluoromethyl)pyrimidin-2-yl]amino}phenyl)-1H-pyrazol-1-yl]methyl}-1,3-oxazolidin-2-one]",≤ 100
10,"COc1nc(Nc2cc(C)cc(-c3cnn(CC4CNC(=O)O4)c3)c2)ncc1F (centres unmarked) [Example 2.25, 5-[(4-{3-[(5-fluoro-4-methoxypyrimidin-2-yl)amino]-5-methylphenyl}-1H-pyrazol-1-yl)methyl]-1,3-oxazolidin-2-one]",≤ 100
11,"Cc1cc(Nc2nccc(C(F)(F)F)n2)cc(-n2cc(C3(O)CCC(C(=O)O)CC3)cn2)c1 (centres unmarked) [Example 19.11, 4-hydroxy-4-[1-(3-methyl-5-{[4-(trifluoromethyl)pyrimidin-2-yl]amino}phenyl)-1H-pyrazol-4-yl]cyclohexanecarboxylic acid]",≤ 100
12,"Cc1cc(Nc2nccc(C(F)F)n2)cc(-c2cnn(CC3CC(=O)NC3C)c2)c1 (centres unmarked) [Example 2.76, 4-{[4-(3-{[4-(difluoromethyl)pyrimidin-2-yl]amino}-5-methylphenyl)-1H-pyrazol-1-yl]methyl}-5-methylpyrrolidin-2-one]",≤ 100
13,"COC(=O)[C@H](O)Cn1cc(-c2cc(C)cc(Nc3nccc(C(F)(F)F)n3)c2)cn1 [Example 5.3, methyl (2R)-2-hydroxy-3-[4-(3-methyl-5-{[4-(trifluoro-methyl)pyrimidin-2-yl]amino}phenyl)-1H-pyrazol-1-yl]propanoate]",≤ 100
14,"CCC(C)(O)Cn1cc(-c2cc(C)cc(Nc3nccc(C(F)F)n3)c2)cn1 (centres unmarked) [Example 3.113, 1-[4-(3-{[4-(difluoromethyl)pyrimidin-2-yl]amino}-5-methylphenyl)-1H-pyrazol-1-yl]-2-methylbutan-2-ol]",≤ 100
15,"Cc1cc(Nc2nccc(C(F)(F)F)n2)cc(-c2cnn(C[C@H](O)C(N)=O)c2)c1 [Example 8.16, (2s)-2-hydroxy-3-[4-(3-methyl-5-{[4-(trifluorometh-yl)pyrimidin-2-yl]amino}phenyl)-1H-pyrazol-1-yl]propanamide]",≤ 100
16,"Cc1cc(Nc2cc(C(F)F)ccn2)nc(-c2cnn(CC3CNC(=O)O3)c2)c1 (centres unmarked) [Example 3.83, 5-{[4-(6-{[4-(difluoromethyl)pyridin-2-yl]amino}-4-methylpyridin-2-yl)-1H-pyrazol-1-yl]methyl}-1,3-oxazolidin-2-one]",≤ 100

row,Compound,IC50 [nM]
1,"COCC(=O)NC(C)(C)Cn1cc(-c2cc(C)cc(Nc3nccc(C(F)F)n3)c2)cn1 [Example 26.3, N-{2-[4-(3-{[4-(difluoromethyl)pyrimidin-2-yl]amino}-5-methylphenyl)-1H-pyrazol-1-yl]-1,1-dimethylethyl}-2-methoxyacetamide]",≤ 100
2,"Cc1cc(Nc2nccc(C(F)(F)F)n2)cc(-c2cnn(CCC3CCCN3)c2)c1 (centres unmarked) [Example 13.2, N-{3-methyl-5-[1-(2-pyrrolidin-2-ylethyl)-1H-pyrazol-4-yl]phenyl}-4-(trifluoro-methyl)-pyrimidin-2-amine]",≤ 100
3,"Cc1cc(Nc2nccc(C(F)(F)F)n2)cc(-c2cnn(C3CCC(C(=O)O)CC3O)c2)c1 (centres unmarked) [Example 5.39, 3-hydroxy-4-[4-(3-methyl-5-{[4-(trifluoromethyl)pyrimidin-2-yl]amino}phenyl)-1H-pyrazol-1-yl]cyclohexane-carboxylic acid]",≤ 100
4,"Cc1cc(Nc2nccc(C(F)(F)F)n2)cc(-c2cnn(C[C@@H](O)C(=O)O)c2)c1 [Example 5.16, (2R)-2-hydroxy-3-[4-(3-methyl-5-{[4-(trifluoromethyl)-pyrimidin-2-yl]amino}phenyl)-1H-pyrazol-1-yl]propanoic acid]",≤ 100
5,"Cc1cc(Nc2nccc(C)n2)cc(-c2cnn(CC(C)(O)CO)c2)c1 (single isomer, unassigned) [Example 25.4, 2-methyl-3-(4-{3-methyl-5-[(4-methylpyrimidin-2-yl)amino]phenyl}-1H-pyrazol-1-yl)propane-1,2-diol]",≤ 100
6,"Cc1cc(Nc2nccc(C(F)(F)F)n2)cc(-c2cnn(CC(=O)N3[C@H](C)COC[C@@H]3C)c2)c1 [Example 3.14, N-[3-(1-{2-[(3r,5s)-3,5-dimethyl-morpholin-4-yl]-2-oxoethyl}-1H-pyrazol-4-yl)-5-methylphenyl]-4-(trifluoromethyl)-pyrimidin-2-amine]",100 to 1000
7,"Cc1cc(Nc2nccc(C(F)(F)F)n2)cc(-c2cnn3cccnc23)c1 [Example 2.37, N-(3-methyl-5-pyrazolo[1,5-a]pyrimidin-3-ylphenyl)-4-(trifluoromethyl)pyrimidin-2-amine]",100 to 1000
8,"Cc1cc(Nc2nccc(C(F)F)n2)cc(-c2cnn(C3CCCC(O)C3O)c2)c1 (single isomer, unassigned) [Example 10.4, 3-[4-(3-{[4-(difluoromethyl)pyrimidin-2-yl]amino}-5-methylphenyl)-1H-pyrazol-1-yl]cyclohexane-1,2-diol]",≤ 100
9,"Cc1cc(Nc2nccc(C(C)C)n2)cc(-c2cnn(CCC(N)=O)c2)c1 [Example 2.8, 3-[4-(3-methyl-5-{[4-(1-methylethyl)-pyrimidin-2-yl]-amino}phenyl)-1H-pyrazol-1-yl]propanamide]",≤ 100
10,"Cc1cc(Nc2nccc(C(F)F)n2)cc(-c2cnn(C(C[C@H](C)O)[C@@H](C)O)c2)c1 (stereo in doubt) [Example 2.53, 3-[4-(3-{[4-(difluoromethyl)pyrimidin-2-yl]amino}-5-methylphenyl)-1H-pyrazol-1-yl]hexane-2,5-diol]",≤ 100
11,"O=C(O)C1CCC(n2cc(-c3cc(Cl)cc(Nc4cc(C(F)(F)F)ccn4)n3)cn2)CC1 (centres unmarked) [Example 1.54, 4-[4-(4-chloro-6-{[4-(trifluoromethyl)pyridin-2-yl]amino}pyridin-2-yl)-1H-pyrazol-1-yl]cyclohexanecarboxylic acid]",≤ 100
12,"Cc1cc(Nc2ncc(F)c(C(F)F)n2)cc(-c2cnn([C@@H]3CCC[C@@H](O)[C@H]3O)c2)c1 (single isomer, unassigned) [Example 10.11, 3-[4-(3-{[4-(difluoromethyl)-5-fluoro-pyrimidin-2-yl]amino}-5-methylphenyl)-1H-pyrazol-1-yl]cyclohexane-1,2-diol]",≤ 100
13,"Cc1ccnc(Nc2cccc(-c3cnn(CC4CNC(=O)O4)c3)c2)n1 (centres unmarked) [Example 2.16, 5-[(4-{3-[(4-methylpyrimidin-2-yl)amino]phenyl}-1H-pyrazol-1-yl)methyl]-1,3-oxazolidin-2-one]",100 to 1000
14,"Cc1cc(Nc2nccc(C(F)F)n2)cc(-c2cnn(C(C[C@@H](C)O)[C@@H](C)O)c2)c1 (stereo in doubt) [Example 2.52, 3-[4-(3-{[4-(difluoromethyl)pyrimidin-2-yl]amino}-5-methylphenyl)-1H-pyrazol-1-yl]hexane-2,5-diol]",≤ 100
15,"Cc1cc(Nc2nccc(C(F)F)n2)cc(-c2cnn(CC3(C)CNC(=O)O3)c2)c1 (centres unmarked) [Example 3.123, 5-{[4-(3-{[4-(difluoromethyl)pyrimidin-2-yl]amino}-5-methylphenyl)-1H-pyrazol-1-yl]methyl}-5-methyl-1,3-oxazolidin-2-one]",≤ 100
16,"Cc1cc(Nc2nccc(C(F)(F)F)n2)cc(-c2cnn(CC(C)(C)O)c2)c1 [Example 5.12, 2-methyl-1-[4-(3-methyl-5-{[4-(trifluorometh-yl)pyrimidin-2-yl]amino}-phenyl)-1H-pyrazol-1-yl]propan-2-ol]",≤ 100
